{"source": "ChEMBL document CHEMBL1201862", "about": "“PubChem BioAssay data set” (2004)", "key": {"[1]": {"biological_target": "T1, Voltage-gated N-type calcium channel alpha-1B subunit/Amyloid beta A4 precursor protein-binding family A member 1 (Homo sapiens, UniProt Q00975+Q02410)", "T1 sequence (Q00975 whole entry)": "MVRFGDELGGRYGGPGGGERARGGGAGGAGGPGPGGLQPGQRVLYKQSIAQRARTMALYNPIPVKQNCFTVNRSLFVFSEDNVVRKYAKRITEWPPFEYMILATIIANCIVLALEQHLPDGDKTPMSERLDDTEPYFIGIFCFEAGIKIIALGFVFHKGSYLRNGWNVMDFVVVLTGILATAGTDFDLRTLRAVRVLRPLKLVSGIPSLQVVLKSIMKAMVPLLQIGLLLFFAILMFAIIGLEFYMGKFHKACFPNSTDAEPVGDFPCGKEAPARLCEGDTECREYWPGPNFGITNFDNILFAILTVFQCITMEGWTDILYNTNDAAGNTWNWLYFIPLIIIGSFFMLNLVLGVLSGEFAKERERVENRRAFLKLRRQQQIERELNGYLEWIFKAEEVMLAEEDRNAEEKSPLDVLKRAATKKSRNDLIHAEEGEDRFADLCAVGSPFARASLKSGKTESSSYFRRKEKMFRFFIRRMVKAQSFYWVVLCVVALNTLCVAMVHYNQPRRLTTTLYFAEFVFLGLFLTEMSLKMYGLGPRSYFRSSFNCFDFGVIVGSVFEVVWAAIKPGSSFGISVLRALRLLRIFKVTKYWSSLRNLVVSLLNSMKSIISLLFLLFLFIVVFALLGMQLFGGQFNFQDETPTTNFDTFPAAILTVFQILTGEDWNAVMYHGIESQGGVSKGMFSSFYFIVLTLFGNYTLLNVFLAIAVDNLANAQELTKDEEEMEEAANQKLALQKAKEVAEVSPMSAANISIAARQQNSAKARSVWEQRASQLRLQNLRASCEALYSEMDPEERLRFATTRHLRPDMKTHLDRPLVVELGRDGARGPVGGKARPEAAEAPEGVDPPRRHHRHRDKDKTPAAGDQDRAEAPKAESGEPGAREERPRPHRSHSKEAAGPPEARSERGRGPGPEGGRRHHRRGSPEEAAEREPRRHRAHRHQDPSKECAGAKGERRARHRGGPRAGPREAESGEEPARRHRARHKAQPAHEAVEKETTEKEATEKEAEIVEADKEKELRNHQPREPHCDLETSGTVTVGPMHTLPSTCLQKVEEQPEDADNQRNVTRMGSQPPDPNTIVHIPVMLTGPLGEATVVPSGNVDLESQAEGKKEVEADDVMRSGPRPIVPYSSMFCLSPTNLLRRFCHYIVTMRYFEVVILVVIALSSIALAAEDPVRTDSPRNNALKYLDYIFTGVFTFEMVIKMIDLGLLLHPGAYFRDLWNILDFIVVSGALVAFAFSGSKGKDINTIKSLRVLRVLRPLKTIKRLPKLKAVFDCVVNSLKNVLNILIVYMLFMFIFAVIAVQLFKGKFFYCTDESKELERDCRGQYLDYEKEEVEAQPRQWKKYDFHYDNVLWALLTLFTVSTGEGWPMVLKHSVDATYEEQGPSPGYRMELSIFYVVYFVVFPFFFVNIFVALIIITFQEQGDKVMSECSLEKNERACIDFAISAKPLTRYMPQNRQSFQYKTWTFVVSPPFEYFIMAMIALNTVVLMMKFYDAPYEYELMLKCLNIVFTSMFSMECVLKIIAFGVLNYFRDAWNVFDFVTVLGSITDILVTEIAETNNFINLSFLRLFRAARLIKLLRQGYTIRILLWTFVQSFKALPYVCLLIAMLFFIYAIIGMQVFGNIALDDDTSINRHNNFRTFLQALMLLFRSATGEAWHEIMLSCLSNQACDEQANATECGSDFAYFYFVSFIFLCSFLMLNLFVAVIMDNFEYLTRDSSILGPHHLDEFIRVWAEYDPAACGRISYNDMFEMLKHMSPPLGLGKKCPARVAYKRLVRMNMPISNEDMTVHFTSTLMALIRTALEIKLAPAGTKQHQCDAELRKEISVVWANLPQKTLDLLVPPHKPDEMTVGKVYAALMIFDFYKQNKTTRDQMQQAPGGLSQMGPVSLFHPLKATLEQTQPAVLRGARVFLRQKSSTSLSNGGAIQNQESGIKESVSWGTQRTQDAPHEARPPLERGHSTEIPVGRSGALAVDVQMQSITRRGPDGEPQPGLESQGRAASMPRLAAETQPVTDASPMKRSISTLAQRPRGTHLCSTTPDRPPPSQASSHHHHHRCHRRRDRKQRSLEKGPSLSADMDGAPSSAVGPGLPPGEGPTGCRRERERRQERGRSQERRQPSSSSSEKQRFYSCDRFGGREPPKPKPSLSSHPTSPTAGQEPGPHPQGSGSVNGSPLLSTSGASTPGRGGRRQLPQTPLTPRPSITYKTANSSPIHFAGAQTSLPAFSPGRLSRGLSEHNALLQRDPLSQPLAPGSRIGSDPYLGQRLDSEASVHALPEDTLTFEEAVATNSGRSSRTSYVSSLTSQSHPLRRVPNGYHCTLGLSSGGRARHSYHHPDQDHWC", "T1 sequence (Q02410 whole entry)": "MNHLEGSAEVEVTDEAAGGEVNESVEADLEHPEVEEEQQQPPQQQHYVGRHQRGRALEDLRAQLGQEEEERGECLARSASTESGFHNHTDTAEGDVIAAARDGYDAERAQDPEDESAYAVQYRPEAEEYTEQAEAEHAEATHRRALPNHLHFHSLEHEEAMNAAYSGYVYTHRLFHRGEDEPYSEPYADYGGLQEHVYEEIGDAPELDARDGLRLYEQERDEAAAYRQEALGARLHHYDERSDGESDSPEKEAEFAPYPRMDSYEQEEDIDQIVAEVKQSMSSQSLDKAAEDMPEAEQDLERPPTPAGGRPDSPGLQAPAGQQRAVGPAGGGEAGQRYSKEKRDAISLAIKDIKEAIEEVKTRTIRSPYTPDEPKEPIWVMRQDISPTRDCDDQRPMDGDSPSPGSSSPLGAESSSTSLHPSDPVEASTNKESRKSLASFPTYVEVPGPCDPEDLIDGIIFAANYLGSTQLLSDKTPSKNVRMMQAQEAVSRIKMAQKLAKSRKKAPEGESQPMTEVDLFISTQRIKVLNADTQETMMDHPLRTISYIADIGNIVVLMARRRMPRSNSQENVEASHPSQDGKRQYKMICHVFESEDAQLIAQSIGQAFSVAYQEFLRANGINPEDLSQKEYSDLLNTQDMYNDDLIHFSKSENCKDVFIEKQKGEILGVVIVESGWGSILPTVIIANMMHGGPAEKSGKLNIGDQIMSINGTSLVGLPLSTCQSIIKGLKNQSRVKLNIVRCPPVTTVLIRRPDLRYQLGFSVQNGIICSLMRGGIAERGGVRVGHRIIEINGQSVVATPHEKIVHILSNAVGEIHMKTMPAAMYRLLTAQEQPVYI", "assay_type": "protein assay"}, "NS3": {"biological_target": "NS3 (Hepatitis C virus, UniProt A3EZJ3)", "sequence (A3EZJ3 whole entry)": "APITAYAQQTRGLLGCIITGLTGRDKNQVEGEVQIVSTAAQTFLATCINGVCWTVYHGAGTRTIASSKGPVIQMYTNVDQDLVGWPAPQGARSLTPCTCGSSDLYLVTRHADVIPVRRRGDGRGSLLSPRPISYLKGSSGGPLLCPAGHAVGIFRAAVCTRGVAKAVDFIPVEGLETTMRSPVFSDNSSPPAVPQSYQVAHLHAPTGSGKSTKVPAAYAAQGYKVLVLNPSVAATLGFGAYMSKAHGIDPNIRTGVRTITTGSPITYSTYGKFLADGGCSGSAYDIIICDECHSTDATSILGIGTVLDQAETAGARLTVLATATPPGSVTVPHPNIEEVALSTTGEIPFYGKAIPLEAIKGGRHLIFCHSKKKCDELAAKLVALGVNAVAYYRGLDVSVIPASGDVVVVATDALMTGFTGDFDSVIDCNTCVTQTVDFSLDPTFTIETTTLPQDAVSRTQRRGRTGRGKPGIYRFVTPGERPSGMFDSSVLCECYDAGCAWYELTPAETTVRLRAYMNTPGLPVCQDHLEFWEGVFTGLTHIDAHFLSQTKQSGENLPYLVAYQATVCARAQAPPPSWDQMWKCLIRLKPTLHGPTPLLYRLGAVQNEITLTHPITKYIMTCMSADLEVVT", "assay": "PubChem AID 2173", "design": "species or system Hepacivirus hominis"}, "[2]": {"biological_target": "T1, Voltage-gated N-type calcium channel alpha-1B subunit/Amyloid beta A4 precursor protein-binding family A member 1", "assay_type": "protein assay", "remark": "listed apart in the source"}, "Troponin, cardiac muscle": {"biological_target": "Troponin, cardiac muscle (Homo sapiens, UniProt P19429+P45379+P63316)", "assay": "compounds desensitizing RTF to calcium – biochemical, fluorescence, cardiac regulated thin filaments, triplicate IC50, dose response (AID 504742)", "assay_type": "protein-complex assay"}, "[3]": {"biological_target": "T1, Voltage-gated N-type calcium channel alpha-1B subunit/Amyloid beta A4 precursor protein-binding family A member 1", "assay": "disruptors of Mint-PDZ/N-type channel peptide interaction – biochemical, HTRF, set 2, SAR follow-up (AID 434980)", "assay_type": "functional"}, "[4]": {"biological_target": "T2, Lysine-specific demethylase 4A (Homo sapiens, UniProt O75164)", "T2 sequence (O75164 whole entry)": "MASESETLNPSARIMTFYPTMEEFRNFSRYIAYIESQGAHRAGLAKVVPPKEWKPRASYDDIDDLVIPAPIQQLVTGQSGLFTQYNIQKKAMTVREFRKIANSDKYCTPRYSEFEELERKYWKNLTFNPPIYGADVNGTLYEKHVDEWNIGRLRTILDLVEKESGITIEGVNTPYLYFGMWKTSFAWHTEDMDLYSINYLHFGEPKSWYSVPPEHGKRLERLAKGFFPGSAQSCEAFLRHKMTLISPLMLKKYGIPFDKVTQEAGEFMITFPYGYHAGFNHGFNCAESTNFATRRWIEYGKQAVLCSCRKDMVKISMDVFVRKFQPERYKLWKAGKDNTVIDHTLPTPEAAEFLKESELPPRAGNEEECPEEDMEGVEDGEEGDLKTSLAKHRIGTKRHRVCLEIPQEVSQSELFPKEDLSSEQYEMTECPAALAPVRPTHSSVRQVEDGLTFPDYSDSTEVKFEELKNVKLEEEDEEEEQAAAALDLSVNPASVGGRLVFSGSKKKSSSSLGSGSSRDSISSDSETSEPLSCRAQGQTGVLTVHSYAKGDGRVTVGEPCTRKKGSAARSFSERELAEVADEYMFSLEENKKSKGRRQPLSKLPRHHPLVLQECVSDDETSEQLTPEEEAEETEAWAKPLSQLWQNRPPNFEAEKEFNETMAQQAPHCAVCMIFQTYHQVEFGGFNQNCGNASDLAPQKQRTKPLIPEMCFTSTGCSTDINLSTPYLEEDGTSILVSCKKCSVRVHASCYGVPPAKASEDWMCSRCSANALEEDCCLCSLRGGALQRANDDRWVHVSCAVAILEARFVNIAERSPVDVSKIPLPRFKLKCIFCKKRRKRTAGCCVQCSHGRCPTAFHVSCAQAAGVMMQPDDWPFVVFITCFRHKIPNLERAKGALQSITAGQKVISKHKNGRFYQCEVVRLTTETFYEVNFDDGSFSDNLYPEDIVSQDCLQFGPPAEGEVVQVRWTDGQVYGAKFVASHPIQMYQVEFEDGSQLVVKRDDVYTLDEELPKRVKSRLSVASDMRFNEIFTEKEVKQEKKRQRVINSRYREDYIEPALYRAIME", "assay": "inhibition of JMJD2A H3K9me3 demethylation – biochemical, DELFIA europium, cherry-picked samples, selectivity assay for GASC-1 inhibitor project, dose response (AID 488840)"}, "[5]": {"biological_target": "Lysine-specific demethylase 4C (Homo sapiens, UniProt Q9H3R0)", "sequence (Q9H3R0 whole entry)": "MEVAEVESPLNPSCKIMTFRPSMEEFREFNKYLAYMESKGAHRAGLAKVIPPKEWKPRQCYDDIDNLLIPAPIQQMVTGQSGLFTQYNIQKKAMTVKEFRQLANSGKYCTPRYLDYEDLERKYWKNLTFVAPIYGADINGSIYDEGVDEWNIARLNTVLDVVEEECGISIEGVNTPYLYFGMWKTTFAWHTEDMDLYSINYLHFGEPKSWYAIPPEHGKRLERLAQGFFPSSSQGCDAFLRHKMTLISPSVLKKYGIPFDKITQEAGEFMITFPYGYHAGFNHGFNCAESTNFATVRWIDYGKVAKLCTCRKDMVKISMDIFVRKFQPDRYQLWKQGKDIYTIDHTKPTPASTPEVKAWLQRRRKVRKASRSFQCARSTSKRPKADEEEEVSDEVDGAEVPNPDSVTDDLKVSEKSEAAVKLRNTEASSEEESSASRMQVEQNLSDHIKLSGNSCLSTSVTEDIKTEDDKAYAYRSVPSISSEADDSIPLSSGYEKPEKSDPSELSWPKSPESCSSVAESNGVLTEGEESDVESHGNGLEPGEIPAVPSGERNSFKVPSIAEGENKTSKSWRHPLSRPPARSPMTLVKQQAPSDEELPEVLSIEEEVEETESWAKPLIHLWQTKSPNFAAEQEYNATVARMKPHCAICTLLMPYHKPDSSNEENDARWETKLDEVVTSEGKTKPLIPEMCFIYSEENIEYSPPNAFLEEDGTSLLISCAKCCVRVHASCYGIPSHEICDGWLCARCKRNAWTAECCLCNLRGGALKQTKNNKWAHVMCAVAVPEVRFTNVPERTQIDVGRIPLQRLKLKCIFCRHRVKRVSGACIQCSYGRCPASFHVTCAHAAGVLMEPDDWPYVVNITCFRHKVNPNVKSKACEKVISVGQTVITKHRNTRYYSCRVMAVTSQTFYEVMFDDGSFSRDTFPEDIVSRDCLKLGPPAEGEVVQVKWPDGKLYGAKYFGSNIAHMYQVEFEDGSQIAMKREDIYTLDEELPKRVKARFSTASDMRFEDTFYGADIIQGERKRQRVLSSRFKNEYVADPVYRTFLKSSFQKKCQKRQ", "assay": "inhibition of JMJD2C H3K9me3 demethylation – biochemical, DELFIA europium, cherry-picked samples, dose response (AID 488835)", "assay_type": "functional"}, "[6]": {"biological_target": "T1, Voltage-gated N-type calcium channel alpha-1B subunit/Amyloid beta A4 precursor protein-binding family A member 1", "assay": "disruptors of Mint-PDZ/N-type channel peptide interaction – biochemical, HTRF, SAR follow-up (AID 2489)", "assay_type": "functional"}, "[7]": {"biological_target": "T3, Glutathione-S-transferase (Schistosoma japonicum, UniProt Q26513)", "T3 sequence (Q26513 whole entry)": "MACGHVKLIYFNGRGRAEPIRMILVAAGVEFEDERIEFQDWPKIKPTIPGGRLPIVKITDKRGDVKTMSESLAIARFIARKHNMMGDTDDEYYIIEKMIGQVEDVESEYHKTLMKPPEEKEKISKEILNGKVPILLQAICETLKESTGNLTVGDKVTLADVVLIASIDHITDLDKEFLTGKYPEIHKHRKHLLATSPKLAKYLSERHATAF", "assay": "GST-antibody interaction or FRET quenching – biochemical, TR-FRET, artefact control for Vif-APOBEC3G degradation inhibitor project, dose response (AID 1117362)", "assay_type": "functional"}, "[8]": {"biological_target": "T4, Short transient receptor potential channel 4 (Mus musculus, UniProt Q9QUQ5)", "T4 sequence (Q9QUQ5 whole entry)": "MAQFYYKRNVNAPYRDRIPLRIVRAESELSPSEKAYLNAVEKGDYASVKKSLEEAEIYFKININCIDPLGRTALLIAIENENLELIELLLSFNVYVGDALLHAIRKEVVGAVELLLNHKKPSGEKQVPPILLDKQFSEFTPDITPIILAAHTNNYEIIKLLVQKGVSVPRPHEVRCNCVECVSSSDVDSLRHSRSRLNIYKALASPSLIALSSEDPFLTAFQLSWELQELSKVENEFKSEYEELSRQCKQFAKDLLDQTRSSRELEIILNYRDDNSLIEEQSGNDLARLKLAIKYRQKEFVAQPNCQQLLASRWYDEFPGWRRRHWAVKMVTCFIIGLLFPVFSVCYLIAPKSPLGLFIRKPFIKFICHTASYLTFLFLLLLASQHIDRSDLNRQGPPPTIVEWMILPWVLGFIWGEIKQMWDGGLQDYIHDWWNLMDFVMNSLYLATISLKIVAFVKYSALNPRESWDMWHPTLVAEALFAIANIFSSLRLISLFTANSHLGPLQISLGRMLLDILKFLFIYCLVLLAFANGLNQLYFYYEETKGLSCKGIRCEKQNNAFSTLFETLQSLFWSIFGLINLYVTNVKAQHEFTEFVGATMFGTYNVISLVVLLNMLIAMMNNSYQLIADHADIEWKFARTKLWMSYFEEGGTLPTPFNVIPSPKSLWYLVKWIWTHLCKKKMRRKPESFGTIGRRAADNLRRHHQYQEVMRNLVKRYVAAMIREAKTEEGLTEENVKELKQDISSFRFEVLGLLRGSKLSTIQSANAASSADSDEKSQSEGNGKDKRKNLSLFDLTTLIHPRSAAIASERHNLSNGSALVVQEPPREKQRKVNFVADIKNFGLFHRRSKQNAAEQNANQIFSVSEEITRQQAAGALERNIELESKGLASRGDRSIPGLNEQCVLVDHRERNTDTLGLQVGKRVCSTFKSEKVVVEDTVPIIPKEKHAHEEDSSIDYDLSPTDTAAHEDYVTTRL", "assay": "block of DAMGO-driven TRPC4 calcium entry – cell-based, HEK293 TRPC4/mu-opioid, Fluo-4 calcium, dose response (AID 434942);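 also: potency of inhibitors blocking the TRPC4 calcium response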", "assay_type": "functional"}, "CAAX prenyl protease 2": {"biological_target": "T5, CAAX prenyl protease 2 (Saccharomyces cerevisiae S288c, UniProt Q03530)", "T5 sequence (Q03530 whole entry)": "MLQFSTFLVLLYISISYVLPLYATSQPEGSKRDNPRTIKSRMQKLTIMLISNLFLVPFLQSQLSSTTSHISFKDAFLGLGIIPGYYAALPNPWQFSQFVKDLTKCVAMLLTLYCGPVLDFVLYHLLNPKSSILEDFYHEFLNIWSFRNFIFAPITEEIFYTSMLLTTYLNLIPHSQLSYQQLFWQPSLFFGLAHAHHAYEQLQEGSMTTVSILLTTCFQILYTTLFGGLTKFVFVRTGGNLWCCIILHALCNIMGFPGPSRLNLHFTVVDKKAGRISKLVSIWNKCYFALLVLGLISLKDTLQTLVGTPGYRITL", "assay_type": "biochemical"}, "[9]": {"biological_target": "T4, Short transient receptor potential channel 4", "assay": "calcium entry via TRPC4 opening agents – cell-based, HEK293 TRPC4/mu-opioid, Fluo-4 calcium, dose response (AID 434937)", "assay_type": "functional"}, "CAAX prenyl protease 1": {"biological_target": "CAAX prenyl protease 1 (Saccharomyces cerevisiae S288c, UniProt P47154)", "assay": "yeast CAAX protease Ste24 inhibition – biochemical, S. cerevisiae, plate reader, cherry-pick, dose response (AID 488815)"}, "[10]": {"assay": "T. cruzi infection blockers in NIH3T3 cells – beta-gal luminescence, NIH3T3 host cells, confirmation (AID 2630)", "assay_type": "functional, cell-based", "conditions": "Mus musculus"}}, "note": "Active and inactive are the calls of the source.", "data": [{"smiles": "Nc1c(C(=O)NC2CC2)sc2nc3c(c(-c4ccco4)c12)CC/C3=C/c1ccco1", "values": [{"measurement": "IC50", "setting": "[1]", "result": "13.1 µM (active)"}, {"measurement": "IC50", "setting": "NS3", "result": "5.48 µM (active)"}, {"measurement": "IC50", "setting": "[2]", "result": "3.99 µM (active)"}, {"measurement": "IC50", "setting": "Troponin, cardiac muscle", "result": "> 71.5 µM (inactive)"}, {"measurement": "IC50", "setting": "[3]", "result": "1.04 µM (active)"}, {"measurement": "AC50", "setting": "[4]", "result": "6.07 µM (active)"}, {"measurement": "AC50", "setting": "[5]", "result": "4.71 µM (active)"}, {"measurement": "IC50", "setting": "[6]", "result": "17.2 µM (active)"}, {"measurement": "IC50", "setting": "[7]", "result": "54 µM (active)"}]}, {"smiles": "O=C(C[n+]1cc2ccccc2c2ccccc21)c1ccccc1", "values": [{"measurement": "EC50", "setting": "[8]", "result": "3.76 µM (active)"}, {"measurement": "AC50", "setting": "CAAX prenyl protease 2", "result": "5.91 µM (active)"}, {"measurement": "EC50", "setting": "[9]", "result": "4.22 µM (active)"}, {"measurement": "AC50", "setting": "CAAX prenyl protease 1", "result": "10.2 µM (active)"}]}, {"smiles": "Cc1ccc(NC(=O)CCC(=O)N/N=C/c2ccco2)c(C)c1", "values": [{"measurement": "EC50", "setting": "[10]", "result": "195 µM (inactive)"}]}]}
